Experimental data reported in the CheMixHub viscosity set.

Assay: xn = mol fraction of the nth substance listed

CCCCOC(C)=O + CCC(C)O
viscosity [mPa·s], 100 kPa
Settings | x1 = 0.081 | x1 = 0.16 | x1 = 0.24 | x1 = 0.35 | x1 = 0.44 | x1 = 0.5598 | x1 = 0.6499 | x1 = 0.74 | x1 = 0.85 | x1 = 0.94
293.15 K | 2.444 | 1.639 | 1.195 | 0.976 | 0.907 | 0.859 | 0.827 | 0.794 | 0.757 | 0.736
298.15 K | 2.041 | 1.423 | 1.045 | 0.87 | 0.805 | 0.768 | 0.746 | 0.732 | 0.703 | 0.681
303.15 K | 1.797 | 1.267 | 0.941 | 0.767 | 0.713 | 0.692 | 0.677 | 0.663 | 0.649 | 0.636
308.15 K | 1.523 | 1.084 | 0.844 | 0.692 | 0.644 | 0.618 | 0.604 | 0.597 | 0.592 | 0.584
313.15 K | 1.28 | 0.951 | 0.756 | 0.633 | 0.585 | 0.555 | 0.544 | 0.541 | 0.546 | 0.542
318.15 K | 1.111 | 0.828 | 0.681 | 0.575 | 0.531 | 0.506 | 0.5 | 0.5 | 0.502 | 0.501
323.15 K | 0.963 | 0.748 | 0.619 | 0.535 | 0.497 | 0.477 | 0.466 | 0.46 | 0.455 | 0.457

CCCN + CCC(C)O
303.15 K, 101 kPa
Settings | viscosity [mPa·s]
x1 = 0.008438 | 2.439
x1 = 0.01874 | 2.408
x1 = 0.02903 | 2.377
x1 = 0.04186 | 2.343
x1 = 0.0458 | 2.329
x1 = 0.05767 | 2.3
x1 = 0.06786 | 2.277
x1 = 0.07593 | 2.253
x1 = 0.08515 | 2.224

CCCCOC(C)=O + CCCCCC
viscosity [mPa·s]
Settings | 298.15 K | 308.15 K
101 kPa, x1 = 0.0521 | 0.3 | 0.282
101 kPa, x1 = 0.1491 | 0.319 | 0.3
101 kPa, x1 = 0.2486 | 0.341 | 0.321
101 kPa, x1 = 0.3517 | 0.368 | 0.346
101 kPa, x1 = 0.4482 | 0.397 | 0.372
101 kPa, x1 = 0.4932 | 0.412 | 0.385
101 kPa, x1 = 0.5515 | 0.433 | 0.403
101 kPa, x1 = 0.6483 | 0.472 | 0.436
101 kPa, x1 = 0.7486 | 0.519 | 0.474
101 kPa, x1 = 0.8491 | 0.574 | 0.517
101 kPa, x1 = 0.9461 | 0.635 | 0.565
101.3 kPa, x1 = 0.1335 | 0.3275 | –
101.3 kPa, x1 = 0.2322 | 0.3509 | –
101.3 kPa, x1 = 0.3294 | 0.3762 | –
101.3 kPa, x1 = 0.4644 | 0.4191 | –
101.3 kPa, x1 = 0.5644 | 0.4558 | –
101.3 kPa, x1 = 0.6697 | 0.4996 | –
101.3 kPa, x1 = 0.8002 | 0.5626 | –
101.3 kPa, x1 = 0.8967 | 0.6164 | –
101.3 kPa, x1 = 0.9324 | 0.6456 | –

CCCOC(=O)c1ccccc1 + CCCCCC
101 kPa
Settings | viscosity [mPa·s]
298.15 K, x2 = 0.0545 | 2.09
298.15 K, x2 = 0.1249 | 1.794
298.15 K, x2 = 0.1605 | 1.659
298.15 K, x2 = 0.2369 | 1.409
298.15 K, x2 = 0.2765 | 1.298
298.15 K, x2 = 0.33 | 1.155
298.15 K, x2 = 0.3772 | 1.043
298.15 K, x2 = 0.4847 | 0.827
298.15 K, x2 = 0.5259 | 0.756
298.15 K, x2 = 0.5689 | 0.69
298.15 K, x2 = 0.6152 | 0.627
298.15 K, x2 = 0.6632 | 0.569
298.15 K, x2 = 0.7031 | 0.525
298.15 K, x2 = 0.7496 | 0.479
298.15 K, x2 = 0.7954 | 0.448
298.15 K, x2 = 0.8308 | 0.42
298.15 K, x2 = 0.8752 | 0.399
298.15 K, x2 = 0.9201 | 0.371
298.15 K, x2 = 0.9574 | 0.351
308.15 K, x2 = 0.0876 | 1.62
308.15 K, x2 = 0.1454 | 1.451
308.15 K, x2 = 0.1923 | 1.32
308.15 K, x2 = 0.2499 | 1.174
308.15 K, x2 = 0.3064 | 1.046
308.15 K, x2 = 0.3543 | 0.95
308.15 K, x2 = 0.4116 | 0.845
308.15 K, x2 = 0.4488 | 0.785
308.15 K, x2 = 0.5082 | 0.698
308.15 K, x2 = 0.5509 | 0.643
308.15 K, x2 = 0.5926 | 0.594
308.15 K, x2 = 0.6346 | 0.55
308.15 K, x2 = 0.6803 | 0.507
308.15 K, x2 = 0.7241 | 0.468
308.15 K, x2 = 0.7719 | 0.433
308.15 K, x2 = 0.8096 | 0.406
308.15 K, x2 = 0.857 | 0.376
308.15 K, x2 = 0.8946 | 0.354
308.15 K, x2 = 0.9406 | 0.334
318.15 K, x2 = 0.0693 | 1.388
318.15 K, x2 = 0.1096 | 1.288
318.15 K, x2 = 0.1613 | 1.172
318.15 K, x2 = 0.221 | 1.048
318.15 K, x2 = 0.2711 | 0.954
318.15 K, x2 = 0.3284 | 0.856
318.15 K, x2 = 0.3767 | 0.781
318.15 K, x2 = 0.432 | 0.705
318.15 K, x2 = 0.4801 | 0.644
318.15 K, x2 = 0.5314 | 0.586
318.15 K, x2 = 0.5757 | 0.54
318.15 K, x2 = 0.6264 | 0.494
318.15 K, x2 = 0.6694 | 0.457
318.15 K, x2 = 0.7292 | 0.411
318.15 K, x2 = 0.76 | 0.391
318.15 K, x2 = 0.8056 | 0.362
318.15 K, x2 = 0.8466 | 0.34
318.15 K, x2 = 0.892 | 0.32
318.15 K, x2 = 0.9292 | 0.304

CCCCCCCC(=O)O + CCCCCC(=O)[O-].[Na+]
100 kPa, x2 = 0.3
Settings | viscosity [mPa·s]
293.15 K | 305.9
298.15 K | 226.5
303.15 K | 171.1
308.15 K | 131.6
313.15 K | 103
318.15 K | 81.7
323.15 K | 65.7
